Assay results reported in patent US20220298138A1, “ENZYME INHIBITORS” (KALVISTA PHARMACEUTICALS LIMITED, priority 2019, published 2022).
pIC50: −log10 of the molar value.

Assays:
[1] = target: T1, Human Factor XIIa (Homo sapiens, UniProt P00748); assay: Factor XIIa inhibitory activity in vitro (fluorogenic substrate H-DPro-Phe-Arg-AFC); type: biochemical; conditions: 25° C., class symbols, read-out: Human FXIIa IC50
T1 construct: purchased Enzyme Research Laboratories
T1 sequence (P00748 373-615 limits assumed): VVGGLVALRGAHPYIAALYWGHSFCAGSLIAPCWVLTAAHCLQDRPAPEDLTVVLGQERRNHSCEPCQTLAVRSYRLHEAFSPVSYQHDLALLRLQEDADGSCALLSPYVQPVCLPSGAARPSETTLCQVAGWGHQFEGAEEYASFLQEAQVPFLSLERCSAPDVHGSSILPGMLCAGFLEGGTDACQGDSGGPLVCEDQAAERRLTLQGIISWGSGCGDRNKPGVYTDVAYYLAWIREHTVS
Outline: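 Enzyme incubated at 25° C with fluorogenic substrate H-DPro-Phe-Arg-AFC and a range of compound concentrations. Residual activity taken as initial reaction rate from […], giving IC50.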

[2] = target: T2, Human FXIa (Homo sapiens, UniProt P03951); assay: FXIa inhibitory activity in vitro (fluorogenic substrate Z-Gly-Pro-Arg-AFC), selectivity; type: biochemical; conditions: category scale, 25° C.
T2 construct: Human FXIa (Enzyme Research Laboratories) was incubated; purchased Enzyme Research Laboratories
Description: Determination of the % Inhibition for FXIa
Human FXIa (Enzyme Research Laboratories) was incubated at 25° C. with the fluorogenic substrate Z-Gly-Pro-Arg-AFC and various concentrations of the test compound. Residual enzyme activity (initial rate of reaction) was determined by measuring the change in fluorescence at 410 nm and the IC50 value for the test compound was determined.

T2 sequence (P03951 388-625 limits assumed): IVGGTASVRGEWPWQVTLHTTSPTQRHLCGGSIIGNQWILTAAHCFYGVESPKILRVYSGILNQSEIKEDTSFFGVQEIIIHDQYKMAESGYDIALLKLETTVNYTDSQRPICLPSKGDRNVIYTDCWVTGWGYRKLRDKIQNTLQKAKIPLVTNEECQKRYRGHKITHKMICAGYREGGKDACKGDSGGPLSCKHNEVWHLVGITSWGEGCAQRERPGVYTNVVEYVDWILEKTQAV
T2 sequence (P03951 19-387 partner limits assumed): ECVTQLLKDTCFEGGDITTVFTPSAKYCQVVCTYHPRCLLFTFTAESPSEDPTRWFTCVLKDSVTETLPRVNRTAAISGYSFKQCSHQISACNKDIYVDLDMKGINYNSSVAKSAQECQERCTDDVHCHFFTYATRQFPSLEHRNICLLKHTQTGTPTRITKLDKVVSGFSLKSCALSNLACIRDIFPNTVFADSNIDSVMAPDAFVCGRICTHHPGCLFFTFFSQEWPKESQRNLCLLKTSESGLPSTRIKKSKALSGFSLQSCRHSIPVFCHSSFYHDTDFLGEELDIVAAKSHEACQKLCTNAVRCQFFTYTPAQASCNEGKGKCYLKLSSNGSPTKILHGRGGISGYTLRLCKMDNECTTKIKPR

pIC50 [1]	pIC50 [2]	SMILES
5.52 to 6.00	5.52 to 6.00	CCC(C)[C@@H](N)C(=O)N[C@H](CC1CCCC2CCCCC21)C(=O)NCc1ccc(C(=N)N)s1 (stereo partly shown) [Example 71.03]
6.00 to 6.55	< 4.40	C[C@H](NC(=O)[C@H](N)CCc1ccccn1)C(=O)NCc1ccc2c(N)nccc2c1 [Example 6.13]
5.52 to 6.00	< 4.40	COc1ccc(C[C@H](NC(=O)[C@@H](CCCCN2CCCCC2)NC(C)C)C(=O)NCc2ccc3c(N)nccc3c2)cc1 [Example 12.09]
4.40 to 5.00	4.40 to 5.00	CC(C)N[C@H](COc1ccccc1)C(=O)N1CCC1C(=O)NCc1ccc2[nH]cc(Cl)c2c1 (stereo partly shown) [Example 10.17]
5.00 to 5.52	6.00 to 6.52	N=C(N)c1ccc(CNC(=O)[C@H](Cc2ccccc2)NC(=O)[C@@H](CC2CCCCC2)NCC(=O)O)cc1 [Example 71.05]
> 7.52	5.52 to 6.00	CC(C)N[C@H](CCCCN1CCCCC1)C(=O)N[C@@H](Cc1csc2ccccc12)C(=O)NCc1ccc2c(N)nccc2c1 [Example 12.07]
5.52 to 6.00	< 4.40	CC(C)N[C@H](CCc1ccccc1)C(=O)N[C@@H](C)C(=O)NCc1cnc2[nH]cc(Cl)c2c1 [Example 9.03]
6.55 to 7.00	4.40 to 5.00	CC(C)N[C@H](CCc1ccccc1)C(=O)N1CC[C@H]1C(=O)NCc1ccc2c(N)nccc2c1 [Example 17.09, (2S)—N-[(1-aminoisoquinolin-6-yl)methyl]-1-[(2R)-2-(isopropylamino)-4-phenylbutanoyl]azetidine-2-carboxamide]
4.40 to 5.00	< 4.40	CC(C)c1ccnc(C(=O)N[C@@H](Cc2ccc(F)c(F)c2)C(=O)NCc2ccc3c(N)nccc3c2)n1 [Example 0.99]
4.40 to 5.00	4.40 to 5.00	C[C@H](NC(=O)[C@H](N)COc1ccccc1)C(=O)NCc1ccc2c(N)nccc2c1 [Example 6.17]
6.55 to 7.00	5.00 to 5.52	CC(C)N[C@H](CCCCN1CCCCC1)C(=O)N1CCC[C@H]1C(=O)NCc1cnc2[nH]cc(Cl)c2c1 [Example 27.02]
7.00 to 7.52	4.40 to 5.00	CC(C)N[C@H](CCCCN1CCCCC1)C(=O)N1CC[C@H]1C(=O)NCc1ccc2[nH]cc(Cl)c2c1 [Example 10.01, (2S)—N-[(3-Chloro-1H-indol-5-yl)methyl]-1-[(2R)-2-(isopropylamino)-6-(piperidin-1-yl)hexanoyl]azetidine-2-carboxamide]
5.00 to 5.52	< 4.40	C[C@H](NC(=O)[C@H](N)CCc1ccncc1)C(=O)NCc1ccc2c(N)nccc2c1 [Example 6.15]
6.00 to 6.55	< 4.40	N[C@H](CCc1ccccc1)C(=O)N1CCC1C(=O)NCc1cnc2[nH]cc(Cl)c2c1 (stereo partly shown) [Example 10.02]
5.52 to 6.00	< 4.40	N[C@H](CCCCN1Cc2ccccc2C1)C(=O)N1CC[C@H]1C(=O)NCc1ccc2[nH]cc(Cl)c2c1 [Example 10.10]
5.52 to 6.00	< 4.40	N[C@H](CCCCN1CCc2ccccc2C1)C(=O)N1CC[C@H]1C(=O)NCc1ccc2[nH]cc(Cl)c2c1 [Example 10.09]
5.52 to 6.00	4.40 to 5.00	Nc1nccc2cc(CNC(=O)[C@@H]3C[C@@H](c4ccccc4)CN3C(=O)[C@@H]3CCCN3)ccc12 [Example 43.06]
4.40 to 5.00	4.40 to 5.00	C[C@H](NC(=O)[C@H](O)CCc1ccccc1)C(=O)NCc1ccc2c(N)nccc2c1 [Example 6.24]
6.00 to 6.55	< 4.40	CC(C)N[C@H](CCCN1CCCCC1)C(=O)N1CC[C@H]1C(=O)NCc1ccc2c(N)nccc2c1 [Example 17.11]
6.55 to 7.00	< 4.40	CC1CCCC(C)N1CC(=O)N[C@@H](Cc1ccc(F)c(F)c1)C(=O)NCc1ccc2c(N)nccc2c1 (stereo partly shown) [Example 3.01]
6.00 to 6.55	< 4.40	N[C@H](CCCCN1CCC(F)(F)C1)C(=O)N1CC[C@H]1C(=O)NCc1cnc2[nH]cc(Cl)c2c1 [Example 10.04]
5.00 to 5.52	< 4.40	C[C@H](NC(=O)[C@H](N)CCc1ccccc1)C(=O)NCc1ccc2[nH]cc(Cl)c2c1 [Example 9.04]
7.00 to 7.52	< 4.40	C[C@@H]1CCC[C@H](C)N1CC(=O)N[C@@H](Cc1ccc(F)c(F)c1)C(=O)NCc1ccc2c(N)nccc2c1 [Example 3.42, (2S)—N-[(1-aminoisoquinolin-6-yl)methyl]-3-(3,4-difluorophenyl)-2-{2-[(2R,6S)-2,6-dimethylpiperidin-1-yl]acetamido}propanamide]
7.00 to 7.52	< 4.40	N[C@H](CCCCN1CCCCC1)C(=O)N[C@@H](Cc1ccc(F)c(F)c1)C(=O)NCc1cnc2[nH]cc(Cl)c2c1 [Example 27.06]
4.40 to 5.00	< 4.40	C[C@H](NC(=O)[C@@H]1NCc2ccccc21)C(=O)NCc1ccc2c(N)nccc2c1 [Example 45.05]

pIC50 [1]	pIC50 [2]	SMILES
5.00 to 5.52	< 4.40	CC(=O)N1C[C@H](c2ccccc2)C[C@H]1C(=O)NCc1ccc2c(N)nccc2c1 [Example 43.01]
5.52 to 6.00	4.40 to 5.00	CC(C)N[C@H](CCCCN1CCCCC1)C(=O)N[C@@H](Cc1ccc2ccccc2c1)C(=O)NCc1ccc2c(N)nccc2c1 [Example 12.08]
6.00 to 6.55	< 4.40	CC(C)N[C@H](CCCCN1CCOCC1)C(=O)N1CC[C@H]1C(=O)NCc1cnc2[nH]cc(Cl)c2c1 [Example 10.05]
5.00 to 5.52	5.00 to 5.52	C[C@H](NC(=O)[C@H](N)CCCc1ccccc1)C(=O)NCc1ccc2c(N)nccc2c1 [Example 6.18]
5.00 to 5.52	4.40 to 5.00	C[C@@H]1CCC[C@H](C)N1CC(=O)N1CC[C@H]1C(=O)NCc1ccc2c(N)nccc2c1 [Example 32.11]
6.55 to 7.00	< 4.40	CC(C)N[C@H](CCc1ccccc1)C(=O)N[C@@H](C)C(=O)NCc1cc2c(N)nccc2o1 [Example 9.24]
6.00 to 6.55	5.00 to 5.52	C[C@H](NC(=O)[C@H]1C[C@@H](c2ccccc2)CN1)C(=O)NCc1ccc2c(N)nccc2c1 [Example 45.01]
5.00 to 5.52	< 4.40	Nc1nccc2cc(CNC(=O)C3(NC(=O)[C@H](N)CCc4ccccc4)CCOCC3)ccc12 [Example 54.03]
6.00 to 6.55	5.00 to 5.52	CC(C)N[C@H](CCc1ccccc1)C(=O)N[C@@H](C)C(=O)NCc1ccc2c(N)nccc2c1 [Example 6.11]
5.00 to 5.52	< 4.40	CC(C)N[C@H](CCCCN1CCCCC1)C(=O)N[C@@H](Cc1ccc(F)c(F)c1)C(=O)NCc1cccs1 [Example 27.07]
6.55 to 7.00	< 4.40	C[C@H](NC(=O)[C@H](N)CCc1ccccc1)C(=O)NCc1cc2c(N)nccc2s1 [Example 9.07, (2R)—N-[(1S)-1-[({4-Aminothieno[3,2-c]pyridin-2-yl}methyl)carbamoyl]ethyl]-2-amino-4-phenylbutanamide]
4.40 to 5.00	4.40 to 5.00	CC(C)(NS(=O)(=O)c1ccc2ccccc2c1)C(=O)NCc1ccc2c(N)nccc2c1 [Example 18.105]
4.40 to 5.00	< 4.40	O=C(NCc1ccc2[nH]cc(Cl)c2c1)[C@@H]1CCN1C(=O)CCCCCN1CCCCC1 [Example 10.16]
4.40 to 5.00	< 4.40	C[C@@H]1CCC[C@H](C)N1CC(=O)N[C@H]1CCC[C@@H]1C(=O)NCc1ccc2c(N)nccc2c1 [Example 32.15]
4.40 to 5.00	< 4.40	N[C@H](CCCCN1CCc2ccccc21)C(=O)N1CC[C@H]1C(=O)NCc1ccc2[nH]cc(Cl)c2c1 [Example 10.14]
6.00 to 6.55	4.40 to 5.00	CC(C)N[C@H](CCCCN1Cc2ccccc2C1)C(=O)N1CC[C@H]1C(=O)NCc1ccc2[nH]cc(Cl)c2c1 [Example 10.11]
6.00 to 6.55	< 4.40	CC(C)N[C@H](CCCCN1CCCCC1)C(=O)N1CC[C@H]1C(=O)NCc1ccc2c(N)nccc2c1 [Example 17.10]
5.00 to 5.52	4.40 to 5.00	C[C@@H]1CCC[C@H](C)N1CC(=O)NC1(C(=O)NCc2ccc3c(N)nccc3c2)CCC1 [Example 39.10]
4.40 to 5.00	< 4.40	C[C@@H]1CCC[C@H](C)N1CC(=O)N1CC(C(=O)NCc2ccc3c(N)nccc3c2)C1 [Example 32.12]
4.40 to 5.00	< 4.40	C[C@@H]1CCC[C@H](C)N1CC(=O)NC1(C(=O)NCc2ccc3c(N)nccc3c2)CCOCC1 [Example 39.11]
5.52 to 6.00	< 4.40	C[C@@H](C(=O)NCc1ccc2c(N)nccc2c1)N(C)C(=O)[C@H](N)CCc1ccccc1 [Example 65.02]
4.40 to 5.00	5.00 to 5.52	Nc1nccc2cc(CNC(=O)[C@H]3CCC[C@@H]3NC(=O)[C@H](N)CCc3ccccc3)ccc12 [Example 17.07]
7.00 to 7.52	< 4.40	Nc1nccc2cc(CNC(=O)[C@H](Cc3ccc(F)c(F)c3)NC(=O)[C@H](N)CCCCN3CCCCC3)ccc12 [Example 12.01]
4.40 to 5.00	< 4.40	N[C@H](CCCCO)C(=O)N1CC[C@H]1C(=O)NCc1ccc2[nH]cc(Cl)c2c1 [Example 10.06]
6.55 to 7.00	< 4.40	C[C@H](NC(=O)[C@@H](CCc1ccccc1)N1CCCC1)C(=O)NCc1ccc2c(N)nccc2c1 [Example 6.23]
